Test results: patent US20080025972A1, “Treating sex steriod responsive disorders” (priority 2006, published 2008)

Legend:
[1] = biological target: T1, androgen receptor protein (Homo sapiens, UniProt P10275); test: S-nitrosylation of purified androgen receptor, biotin switch assay; type: biochemical; conditions: anaerobic conditions; GSH as control
T1 construct: purchased Cambridge Bioscience, England
T1 sequence (P10275 1-920): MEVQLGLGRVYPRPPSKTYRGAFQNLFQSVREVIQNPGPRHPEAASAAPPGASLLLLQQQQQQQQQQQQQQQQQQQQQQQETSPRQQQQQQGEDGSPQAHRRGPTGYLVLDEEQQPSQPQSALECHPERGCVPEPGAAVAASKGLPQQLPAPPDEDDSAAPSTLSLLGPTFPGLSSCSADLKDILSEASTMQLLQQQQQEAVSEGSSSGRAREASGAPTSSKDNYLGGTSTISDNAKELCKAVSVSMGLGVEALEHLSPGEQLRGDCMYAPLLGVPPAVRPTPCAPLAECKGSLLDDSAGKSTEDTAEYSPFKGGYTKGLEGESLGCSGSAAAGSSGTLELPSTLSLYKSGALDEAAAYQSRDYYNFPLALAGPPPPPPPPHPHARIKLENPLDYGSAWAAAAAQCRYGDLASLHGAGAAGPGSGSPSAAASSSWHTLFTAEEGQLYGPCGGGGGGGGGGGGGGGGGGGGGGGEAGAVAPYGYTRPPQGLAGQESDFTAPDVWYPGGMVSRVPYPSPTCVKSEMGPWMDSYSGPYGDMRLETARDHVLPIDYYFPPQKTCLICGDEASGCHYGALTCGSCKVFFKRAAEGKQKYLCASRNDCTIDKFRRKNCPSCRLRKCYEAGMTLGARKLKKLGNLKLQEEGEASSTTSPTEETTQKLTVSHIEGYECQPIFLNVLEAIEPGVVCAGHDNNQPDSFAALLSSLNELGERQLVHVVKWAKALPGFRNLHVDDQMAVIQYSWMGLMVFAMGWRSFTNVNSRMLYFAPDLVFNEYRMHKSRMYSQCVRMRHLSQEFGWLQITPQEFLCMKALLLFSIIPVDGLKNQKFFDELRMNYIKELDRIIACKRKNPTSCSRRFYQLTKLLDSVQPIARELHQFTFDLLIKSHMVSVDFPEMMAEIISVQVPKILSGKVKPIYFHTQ
From the text: Purified androgen receptor protein (obtained from Cambridge Bioscience, England) was exposed to nitric oxide by means of contact with nitrosoglutathione (GSNO) under anaerobic conditions. Glutathione (GSH) was used as a control. […] Cell Biol 3, 193-197 (2001).

[2] = tested on: prostate cancer; test: Treatment of patients with prostate cancer (Working Examples); type: in vivo, human
[3] = tested on: LNCaP cells; conditions: 5-10 nmol/L, 48 hours, wild type cells
Description: (§1) Cell proliferation was determined in cellular assays carried out as follows:
(§2) LNCaP cells (obtained from ATCC) and seeded at 2.5×10^4/well were incubated in charcoal-stripped serum for 24-48 hours prior to stimulation with DHT (5-10 nmole/L) for an additional 48 hours. The number of viable cells (that exclude trypan blue) was counted using a light microscope and a hemocytometer.

[4] = tested on: e-NOS overexpressing prostate cancer cells; conditions: 5-10 nmol/L
Description: as §1, §2

[5] = tested on: androgen receptor; conditions: stimulated 24 hours
Description: A luciferase reporter assay as described in Kasbohm, E. A., et al., Journal of Biological Chemistry 289,11583-11589 (2005), was used to detect androgen receptor activation.
As a control, the following was carried out. Androgen receptor in the form of prostate cancer cells was incubated with androgen under the following conditions.
Cells were seeded in 100-mm dishes and transfected at 70% confluence using DMRIE-C Reagent (Invitrogen). Transfections were carried out with cDNAs encoding the probasin or ARR2 luciferase (1 μg) and SV40-Renilla luciferase reporter plasmid (Promega) (10 ng) together with empty vector or the indicated gene of interest using a total of 6 μg of DNA/plate. At the end of transfection, cells were equally divided into 6-well plates and allowed to attach. The culture medium was replaced after 24 hours with starvation medium (phenol red-free RPMI 1640 cell culture medium) containing 5% charcoal-stripped fetal bovine serum, 1% penicillin/streptomycin, and 10 mM HEPES buffer, pH 7.5), and identical cell populations, in duplicate, were stimulated with androgen or vehicle for an additional 24 hours. Luciferase activities in cell lysates were measured using the Dual Luciferase assay system (Promega; Madison, Wis.) and were normalized by the Renilla activities and protein concentrations of the samples.

[6] = tested on: breast cancer; test: Treatment of patient with breast cancer (Working Example X); type: in vivo, human; conditions: person, 40 mg PO BID, over 6 months
[7] = tested on: PSA protein expression in LNCaP cells; test: PSA protein expression in LNCaP cells (immunoblot); type: cell-based; conditions: nitric oxide synthesis inhibited; DHT 10 nmol/L 24 hours
Description: The experiments of Background Example 4 were repeated but instead of determining androgen receptor activation, PSA level was measured by PSA protein expression in LNCaP cells. LNCaP cells were incubated in phenol red-free RPMI cell culture medium containing 5% charcoal-stripped fetal bovine serum (CSS) for 48 hours and then treated with dihydrotestosterone (DHT) (10 nmol/L) or vehicle control (ethanol) for 24 hours. Immunoblots were conducted using anti-PSA antibodies to measure PSA protein expression. Same filters were immunoblotted using anti-actin antibodies as control to establish equal loading of proteins.

Q: With `N[C@@H](CCC(=O)N[C@@H](CSN=O)C(=O)NCC(=O)O)C(=O)O` [nitrosoglutathione] as the compound, how does the “S-nitrosylation of androgen receptor” value [1] read?
A: S-Nitrosylation of androgen receptor was detected

Q: And the PSA level decrease ([2]; human, in vivo, po)?
A: 50%

Q: How did the cell growth [3] turn out when `C[C@]12CCC(=O)C[C@@H]1CC[C@@H]1[C@@H]2CC[C@]2(C)[C@@H](O)CC[C@@H]12` [androgen, dihydrotestosterone] was run?
A: increased cell growth

Q: What about the cell growth [4] of the same compound?
A: no effect on cell growth

Q: What about the “androgen receptor activation by androgen (control case)” value [5] of the same compound?
A: activated androgen receptor

Q: With `O=[N+]([O-])OCC(CO[N+](=O)[O-])O[N+](=O)[O-]` [nitroglycerin] as the compound, how does the “progression of the disease measured by PSA and bony metastases” value ([2]; topical 0.8 mg/hour, after progression on busaralin) read?
A: slows

Q: How did the PSA level decline ([2]; person, 40 mg PO BID, 3 months) turn out when `O=[N+]([O-])O[C@@H]1CO[C@H]2[C@@H]1OC[C@@H]2O` [isosorbide mononitrate] was run?
A: 50%

Q: What about the lung metastases [6] of the same compound?
A: regress

Q: How did the PSA level drop ([2]; person, 150 mg orally 4 times/day, over 4 months) turn out when `N[C@H](CCC(=O)N[C@H](CS)C(=O)NCC(=O)O)C(=O)O` [D-glutathione] was run?
A: 50%

Q: `CCNC(=O)[C@@H]1CCCN1C(=O)[C@H](CCCNC(=N)N)NC(=O)[C@H](CC(C)C)NC(=O)[C@@H](COC(C)(C)C)NC(=O)[C@H](Cc1ccc(O)cc1)NC(=O)[C@H](CO)NC(=O)[C@H](Cc1c[nH]c2ccccc12)NC(=O)[C@H](Cc1cnc[nH]1)NC(=O)[C@@H]1CCC(=O)N1` [busaralin] was tested. Which disease course ([2]; person with body metastases, busaralin treatment) did it give?
A: the disease progresses

Q: How did the PSA expression [7] turn out when `COC(=O)[C@@H](N)CCCNC(=N)N[N+](=O)[O-]` [L-NAME] was run?
A: more PSA was expressed

Q: For `O=[N+]([O-])O[C@H]1CO[C@H]2[C@@H]1OC[C@H]2O[N+](=O)[O-]` [isosorbide dinitrate], which PSA level ([2]; person, 20 mg PO BID, over 3 months) is on record?
A: stabilizes
